Test results from US12280047B2, “Treatment of aneurysms” (Georgia State Research Foundation, Inc., priority 2017, dated 2025).

Experiments:
[1] = system: MMP2; experiment: MMP2 in isolated mouse aortas incubated with 3-HAA ex vivo; conditions: 400 μM 3-HAA, 48 hours, aortas from ApoE−/− and ApoE−/−/IDO−/− mice
[2] = system: MMP2; experiment: MMP2 expression and activity in aortas of 3-HAA-injected mice; format: in vivo; conditions: 3-HAA 200 mg/kg/d i.p., 6 weeks; ApoE−/− and ApoE−/−/IDO−/− mice; vs vehicle-treated mice
Protocol: ApoE^−/− and ApoE^−/−/IDO^−/− mice at age 8 weeks on a chow diet were intraperitoneally injected with 3-HAA (200 mg/kg. d) or vehicle for 6 weeks. 3-HAA was dissolved in […] and further diluted in Captisol (Captisol Technology).
Circ Res. (2014) 114:480-92.
The evaluation of MMP activities in cells and aortas was performed as described previously in: Satoh K, et al., Cyclophilin A enhances vascular oxidative stress and the development of angiotensin II-induced aortic aneurysms. Nat Med. (2009) 15:649-56; Becerra A, et al., Increased activity of indoleamine 2,3-dioxygenase in serum from acutely infected dengue patients linked to gamma interferon antiviral function. J Gen Virol. (2009) 90:810-7; Holmes E W. Determination of serum kynurenine and hepatic tryptophan dioxygenase activity by high-performance liquid chromatography. Anal Biochem. (1988) 172:518-25; Forrest C M, et al., Kynurenine pathway metabolism in patients with osteoporosis after 2 years of drug treatment. Clin Exp Pharmacol Physiol. […]
To ascertain the effect of 3-HAA in MMP2 expression in vivo, ApoE^−/− and ApoE^−/−/IDO^−/− mice were intra-peritoneally treated with vehicle or 3-HAA (200 mg/kg/d) for 6 weeks. Corresponding increases in 3-HAA were detected in the plasma (FIG. 6F) and aortas (FIGS. 6D and 6E) of 3-HAA-injected ApoE^−/− and ApoE^−/−/IDO^−/− mice. […]

[3] = system: HASMCs; experiment: MMP2 expression and activity in HASMCs incubated with metabolites of Trp degradation; format: cell-based, human
Description: J Immunol. […] Neuropharmacology. […] Proc Natl Acad Sci USA.

[4] = system: ApoE−/− mice; experiment: Serum kynurenine pathway metabolites in AngII mice treated with OMBA, NBA, 1MT (Example 15); format: in vivo
Protocol: The culture medium was centrifuged to pellet the cells to avoid contamination from the cells, and the supernatant was filtered ([…]) before use. Sample preparation for plasma was operated as described previously (Becerra A, et al., Increased activity of indoleamine 2,3-dioxygenase in serum from acutely infected dengue patients linked to gamma interferon antiviral function. J Gen Virol. (2009) 90:810-7; Holmes E W. Determination of serum kynurenine and hepatic tryptophan dioxygenase activity by high-performance liquid chromatography. Anal Biochem. (1988) 172:518-25). 200 μL of plasma was mixed by vortex in a small polyethylene conical tube with 1/10 volume of ice cold 2.4 mol/L perchloric acid. The cloudy suspension was chilled on ice for 15 min and then centrifuged at 10,000 g for 2 min. The clear protein-free supernatant was analyzed directly.
Circ Res. (2014) 114:480-92. Kyn content was estimated along with standards ranging from 0.5-20 μM L-kynurenine (Sigma, K8625), and Trp level was assessed along standards ranging from 1-25 μM DL-Tryptophan (Sigma, 162698), using a GraceVydac C18 column (250×4.6 mm, 5.0 The mobile phase was 20 mM sodium acetate at pH=4.5. The flow rate was 1 ml/min. The column effluent was monitored at 360 nm (Kyn) and 280 nm (Trp) by a UV detector.
3-HAA was measured by HPLC as described previously in Forrest C M, et al., Kynurenine pathway metabolism in patients with osteoporosis after 2 years of drug treatment. Clin Exp Pharmacol Physiol. (2006) 33:1078-87. 3-HAA content was estimated along with standards ranging from 1-200 nM 3-Hydroxyanthranilic acid (Santa Cruz, sc-216460), using a GraceVydac C18 column (250×4.6 mm, 5.0 The mobile phase consisted of 25 mM sodium acetate (pH=5.5) and methanol (90:10 v/v) was pumped at a flow rate of 1 ml/min. Fluorescent detection at excitation 320 nm and emission 420 was used. […]

[5] = system: ApoE−/− mice; experiment: OMBA, NBA and 1MT treating AngII-induced abdominal aortic aneurysm (Example 15); format: in vivo; conditions: for Incidence of AAA: ApoE−/− mice, AngII 1,000 ng/kg/min four weeks, then drug in drinking water 6 weeks, mice with AAA/group size
Protocol: To test the effect of other Kynurenine pathway inhibitors on treating AngII-induced abdominal aortic aneurysm, male ApoE^−/− mice at age 8 weeks were infused with AngII (1,000 ng/kg/min) or saline (0.9% sodium chloride) by Alzet osmotic pumps for four weeks. Four weeks later, Ang-II treated mice were divided into […] groups of 18 and administered o-methoxybenzo ylalanine (OMB), (m-nitrobenzoyl)alanine (NBA), 1-methyltryptophan (1MT) or vehicle control (water) by drinking water for 6 weeks.
To quantify AAA incidence and size, the maximum width of abdominal aorta was measured with Image Pro Plus software (Media Cybernetics). Aneurysm incidence was quantified based on a definition of aneurysm as an external width of the suprarenal aorta that was increased by 50% or greater compared with aortas from saline-infused mice. The average diameter of the normal suprarenal aorta in control mice is 0.8 mm. Therefore, a threshold of 1.22 mm as evidence of aneurysm formation was set. […] Incidence of AAA among the various groups of mice is outlined in FIG. 31A and Table 5 below.

[6] = concentration- and time-dependent manner

| Compound | MMP2 expression and activity in isolated aortas [1] | MMP2 expression and activity in aortas [2] | MMP2 expression and activity ([3]; 48 hours, Kyn 100 μM, 3-HK 100 μM, KA 75 μM, AA 100 μM, 3-HAA 200 μM, XA 200 μM, QA 1 mM, immunoblot and zymography) | expression and activity of MMP2 [3, 6] | phosphorylation of Elk1 at Ser383 [3, 6] | Serum levels of tryptophan ([4]; AngII-administered mice, compared to control mice) | Levels of anthranilic acid (serum) ([4]; compared to AngII alone) | Levels of kynurenic acid (serum) ([4]; compared to AngII alone) | aortic weight to body weight ratio ([5]; AngII-administered mice) | maximal abdominal aortic diameter ([5]; AngII-administered mice) | Incidence of AAA [5] |
| --- | --- | --- | --- | --- | --- | --- | --- | --- | --- | --- | --- |
| Nc1c(O)cccc1C(=O)O [3-HAA, 3-Hydroxyanthranilic acid] | significantly upregulated | remarkably increased | dramatic increase | induced | induced |  |  |  |  |  |  |
| COc1ccccc1C(=O)NC(C)C(=O)O (stereo not drawn) [OMBA, o-Methoxybenzoylalanine] |  |  |  |  |  | decreased | elevated | elevated | lower | lower | 5/18 |
| Cn1cc(C[C@H](N)C(=O)O)c2ccccc21 [1MT, 1-methyltryptophan] |  |  |  |  |  |  |  |  |  |  | 9/18 |
